Measurements from patent publication US12691092B2, “Method for reducing cutaneous skin scarring by pre-emptive priming and compounds and compositions for its implementation” (SOS SCIENCE OF SKIN LTD, priority 2020, dated 2026).

Key:
[1] = tested on: human skin scarring model; experiment: Scar thickness by H+E stain; format: in vivo; conditions: weeks 4 and 8, Groups 1, 2 and 4
Method: (§1) A double-blind randomized placebo-controlled trial was conducted using a temporal punch-biopsy model. The punch biopsy and topical application methodology used in the study is illustrated in FIG. 1, namely showing pre-injury pre-emptive priming (7-days), pre-injury pre-emptive priming (3-days), day of injury (immediate application on day 0), post-injury (delayed 2 weeks post injury) including biopsy time points and time of topical applications. Each group applied both placebo and topical formulations twice daily for the duration of the study until week 8, with only the starting time point differing between groups Participants were split into 4 groups (n=10 in each group) in order to compare different modes (timings) of commencement of the topical application: • Group-1: Pre-emptive Priming (7-days): pre-injury • Group-2: Pre-emptive Priming (3-days): pre-injury • Group-3: Immediate (0-day): day-of-injury • Group-4: Delayed (14-days): post-injury Clinical quantitative devices were used to objectively monitor cutaneous healing at weekly intervals and punch biopsies were performed on day 0 (uninjured skin) and at weeks 4 and 8 for protein and gene expression analyses. […] Excisional skin biopsies in upper arms were evaluated weekly with multiple quantitative devices over an 8-week period. […]

[2] = tested on: human skin scarring model; experiment: Skin thickness by high frequency ultrasound (HFUS); format: in vivo; conditions: significant in group-1 week 8 (p=0.002); group-2 weeks 6, 8; group-3 weeks 5-8; group-4 weeks 3, 5-8 (p<0.01)
Method: as §1, with “Structural changes” for “Excisional skin biopsies”, “the scars” for “upper arms”, “assessed clinically by high frequency ultrasound (HFUS) and elasticity probe, and elastin and collagen markers.” for “evaluated weekly with multiple quantitative devices over an 8-week period.”

[3] = tested on: VEGF-A; experiment: VEGF-A angiogenic immunohistochemical marker in scar biopsies; format: in vivo, human
Method: (§2) A double-blind randomized placebo-controlled trial was conducted using a temporal punch-biopsy model. The punch biopsy and topical application methodology used in the study is illustrated in FIG. 1, namely showing pre-injury pre-emptive priming (7-days), pre-injury pre-emptive priming (3-days), day of injury (immediate application on day 0), post-injury (delayed 2 weeks post injury) including biopsy time points and time of topical applications. Each group applied both placebo and topical formulations twice daily for the duration of the study until week 8, with only the starting time point differing between groups Participants were split into 4 groups (n=10 in each group) in order to compare different modes (timings) of commencement of the topical application: • Group-1: Pre-emptive Priming (7-days): pre-injury • Group-2: Pre-emptive Priming (3-days): pre-injury • Group-3: Immediate (0-day): day-of-injury • Group-4: Delayed (14-days): post-injury Clinical quantitative devices were used to objectively monitor cutaneous healing at weekly intervals and punch biopsies were performed on day 0 (uninjured skin) and at weeks 4 and 8 for protein and gene expression analyses. In the trial, topical EGCG and a placebo topical were applied twice daily for the duration of the trial until week 8 with only the starting time points differing between groups. Clinical and experimental analysis involved use of non-invasive devices as well as protein and gene studies. Excisional skin biopsies in upper arms were evaluated weekly with multiple quantitative devices over an 8-week period. […] In order to further support these findings and the clinical findings, two well-known and established angiogenic immunohistochemical markers; CD31 and VEGF-A were used.

[4] = tested on: elastin; experiment: Immunohistochemical analysis of elastin in scar biopsies; format: in vivo, human
Method: as §2, with “period. Immunohistochemical analyses, mRNA sequencing and QRT-PCR were performed on tissue biopsies.” for “period.”, “There was also a significant increase at week-4 in group-1 only by 12% with EGCG (P=0.01). Between group analysis indicated a significant difference at week-8 (p=0.001). The greatest differences were in group-1 compared” for “In order”, “groups-3 by 20% (p=0.008)” for “further support these findings”, “group-4 by 20% (p=0.003)” for “the clinical findings, two well-known”, “in group-2 compared to group-4 by 17% (p=0.009).” for “established angiogenic immunohistochemical markers; CD31 and VEGF-A were used.”

Compound: O=C(OC1Cc2c(O)cc(O)cc2OC1c1cc(O)c(O)c(O)c1)c1cc(O)c(O)c(O)c1 (single isomer, unassigned; (-)) [EGCG, (-)-epigallocatechin-3-gallate]
- Scar thickness by H+E stain with EGCG [1]: reduced scar thickness
- HFUS skin thickness, EGCG scars compared to placebo scars [2]: lower
- VEGF-A in EGCG-treated samples compared to placebo ([3]; week 4, all groups, p<0.01): significantly down-regulated
- VEGF-A: greater reduction in group-2 compared to group-4 ([3]; week 4, 3-day priming vs delayed, p=0.01): 56%
- VEGF-A: greater reduction in group-1 compared to group-4 ([3]; week 4, 7-day priming vs delayed, p=0.005): 51%
- VEGF-A in EGCG-treated samples ([3]; week 8, groups 1-3, p<0.01): significant reduction
- Elastin levels in primed uninjured skin ([4]; primed uninjured skin prior to injury): increases elastin levels
- Elastin (immunohistochemical) increase with EGCG ([4]; week 4, group-1 only, P=0.01): 12%
- Elastin (immunohistochemical), EGCG-treated samples compared to placebo ([4]; week 8, all groups, p<0.01): up-regulated
- Elastin: difference of group-2 compared to group-4 ([4]; week 8, 3-day priming vs delayed, p=0.009): 17%
- Elastin: difference of group-1 compared to group-4 ([4]; week 8, 7-day priming vs delayed, p=0.003): 20%
- Elastin: difference of group-1 compared to group-3 ([4]; week 8, 7-day priming vs immediate, p=0.008): 20%
